Laboratory results reported in US20120015390A1, “Methods for the Detection and Treatment of Aberrant Prion Disease” (PROTEA BIOPHARMA N.V., priority 2009, published 2012).
Where “and” joins values, the source holds several entries; their conditions need not be identical. Identical values can stand only once.

Key:
[1] = system: aberrant membrane NADH oxidase; format: cell-based
NADH oxidase = format: cell-based
NADH-oxidase = conditions: in vivo

Compound	CPM NADH hypotoon [1]	CPM NADH isotoon [1]	CPM iso/hypo [1]	induction of aberrant NADH-oxidase (higher counts under isotonic conditions) [1]	formation of cell surface associated aberrant NADH oxidase (NADH oxidase)	CPM (NADH oxidase)	chemiluminescence response after addition of substance and hypotonic NADH (NADH oxidase)	chemiluminescence response after addition of substance and isotonic NADH (NADH oxidase)	isotonic NADH induced lucigenin-dependent chemiluminescence in urine (NADH-oxidase)
[Cl][Cd][Cl] [CdCl2]	376 CPM	114 CPM	0.30						
HgCl2	18 CPM	101 CPM	5.61	suggest induction of aberrant NADH-oxidase	induces the formation of cell surface associated aberrant NADH oxidase				
C[CH2][Hg][S]c1ccccc1C(=O)[O-].[Na+] [Thimerosal]	3338 CPM	2380 CPM	0.71						
O=[N+]([O-])[O-].O=[N+]([O-])[O-].[Pb+2] [Pb(NO3)2]	817 CPM	1402 CPM	1.71	suggest induction of aberrant NADH-oxidase					
Heparin						17740 CPM and 15303 CPM and 14082 CPM and 10372 CPM and 9192 CPM	significant concentration-dependent increase	not observed	
C[S+](C)[O-] [DMSO]							significant concentration-dependent increase	not observed	increases
[Cl][Ni][Cl] [NiCl2]	860 CPM	913 CPM	1.06	suggest induction of aberrant NADH-oxidase					
